Results from patent publication US20260070917A1, “CYCLIN DEPENDENT KINASE DEGRADERS AND METHODS OF USE THEREOF” (Differentiated Therapeutics Inc, priority 2023, published 2026).

What was measured:
CCNE1 = target: T1, CCNE1 (Homo sapiens, UniProt P24864); assay: HiBit Assay Protocol for CCNE1 (HIBIT protein quantification, degradation); format: cell-based; details: HEK293-CCNE1-Hibit cells, compound treatment for 6 hours
T1 construct: host or cells: HEK293-CCNE1-Hibit
Method: HiBit Assay Protocol for CCNE1
(§1) • 1. The culture medium for HEK293-CCNE1-Hibit cell was prepared using EMEM with 1000 FBS. • 2. Cells were cultivated in T-75 flasks in a cell culture incubator set at 37° C., 5% CO2, 95% relative humidity. Cells were allowed to reach 80-90% confluence before detaching and splitting. • 3. Cultivated cells were rinsed in T-75 flasks with 5 mL PBS. Aspirate off Added was 1.5 mL trypsin, and the cells were incubated at 37° C. for approximately 5 minutes or until the cells detached and floated. • 4. Trypsin was inactivated by adding excess serum containing medium. • 5. Cells were harvested from flask into cell culture medium and then the cell number was counted. HEK293-CCNE1-Hibit cell were seeded into 384-well plate (cell density: 1.6×10^5 cells/well/50 uL medium) in EMEM medium according to the plate map below and incubated overnight at 37° C. and 500 CO2. • Note: Cell Cultured Medium: 90% EMEM+10% FBS+1% Penicillin-Streptomycin Liquid
(§2) • 1. Test compounds were dissolved at 10 mM DMSO stock solution. 45 μL of stock solution was transferred to a 384 pp-plate. A 3-fold, 10-point dilution was performed via transferring 15 uL compound into 30 uL DMSO by using TECAN liquid handler. • 2. The plates were spinned at room temperature at 1,000 RPM for 1 minute. • 3. 50 nL of diluted compound was transferred from compound source plate into the cell plate by Echo. • 4. After compound treatment for 6 hours, the plate was removed from incubators and equilibrated at room temperature for 15 minutes. The HiBit reagent was prepared, consisting of the following ratios: 10 mL of Nano-Glo®-HiBiT Lytic Buffer, 200 μL of Nano-Glo®-HiBiT Lytic Substrate and 100 μL of LgBiT Protein, mix thoroughly. 20 μL of HiBit reagent was added into each well and the plates were spinned at room temperature at 1,000 RPM for 1 minute to be detected. Then the plates were shaken at 600 RPM at room temperature for 20 minutes, and read by EnVision. • 5. The inhibition activity was calculated following the formula below:
(§3) [formula] • Note: Where HC is obtained from cells treated with […] only; LC is obtained from culture medium only. • 6. ABS DC50 was calculated by fitting the Curve using Xlfit (v5.3.1.3), equation 201: […]

CDK2 = target: T2, CDK2 (Homo sapiens, UniProt P24941); assay: HiBit Assay Protocol for CDK2 (HIBIT protein quantification, degradation); format: cell-based; details: HEK293-CDK2-Hibit cells, compound treatment for 6 hours; for DC50: ABS DC50
T2 construct: host or cells: HEK293-CDK2-Hibit
Method: HiBit Assay Protocol for CDK2
as §1, with “HEK293-CDK2-Hibit cells” for “HEK293-CCNE1-Hibit cell”, “DMEM” for “EMEM”, “10%” for “1000”, “5%” for “500”, “DMEM+10%” for “EMEM+10%”
as §2, with “mM DMS” for “mM DMSO”, “45 uL” for “45 μL”, “100 uL” for “100 μL”, “Protein, mixed” for “Protein, mix”
as §3

T1 sequence (P24864 whole entry): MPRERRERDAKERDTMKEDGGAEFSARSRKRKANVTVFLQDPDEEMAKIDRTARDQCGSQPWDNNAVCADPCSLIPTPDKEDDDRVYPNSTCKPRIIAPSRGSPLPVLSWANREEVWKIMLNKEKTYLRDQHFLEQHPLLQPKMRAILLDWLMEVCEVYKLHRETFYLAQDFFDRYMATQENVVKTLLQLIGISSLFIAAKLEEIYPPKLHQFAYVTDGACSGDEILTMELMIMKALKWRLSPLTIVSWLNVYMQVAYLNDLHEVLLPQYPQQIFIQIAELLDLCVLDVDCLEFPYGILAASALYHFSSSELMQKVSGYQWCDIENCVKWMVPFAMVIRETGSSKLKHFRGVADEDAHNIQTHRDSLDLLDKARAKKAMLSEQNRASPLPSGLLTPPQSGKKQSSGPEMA

Row | SMILES | CCNE1 HIBIT Protein Quantification Maximum (CCNE1) | CDK2 HIBIT Protein Quantification Maximum (CDK2) | DC50 (CDK2)
1 | CC1CCCC1N1C(=O)C2(CC2)c2cnc(NC3CCN(S(=O)(=O)C4CCN(C(=O)CCCCCc5cccc6c5n(C)c(=O)n6C5CCC(=O)NC5=O)C4)CC3)nc21 (centres unmarked) [Compound 1, 3-{3-Methyl-4-[6-(3-{4-[7′-(2-methylcyclopentyl)-6′-oxospiro[cyclopropane-1,5′-pyrrolo[2,3-d]pyrimidin]-2′-ylamino]piperidin-1-ylsulfonyl}pyrrolidin-1-yl)-6-oxohexyl]-2-oxo-1,3-benzodiazol-1-yl}piperidine-2,6-dione] | 30.9% | 70.2% | 16 nM
2 | C[C@H]1CN(c2ccc3c(N4CCC(=O)NC4=O)nn(C)c3c2)CCN1[C@@H](C)c1cccc(S(=O)(=O)N2CC[C@H](Nc3ncc4c(n3)N([C@@H]3CCC[C@@H](O)C3)C(=O)C43CC3)[C@H](F)C2)c1 [Compound 194] | 42% | 94% | 3.86 nM
3 | C[C@H](c1cc(S(=O)(=O)N2CC[C@H](Nc3ncc4c(n3)N([C@@H]3CCC[C@@H](O)C3)C(=O)C43CC3)[C@H](F)C2)ccc1F)N1CCN(c2ccc3c(N4CCC(=O)NC4=O)nn(C)c3c2)CC1 [Compound 210] | 47% | 91% | 4.7 nM
4 | C[C@@H](c1cc(S(=O)(=O)N2CC[C@H](Nc3ncc4c(n3)N([C@@H]3CCC[C@@H](O)C3)C(=O)C43CC3)[C@H](F)C2)ccc1F)N1CCN(c2ccc3c(N4CCC(=O)NC4=O)nn(C)c3c2)CC1 [Compound 211] | 40% | 88% | 12.1 nM
5 | Cn1nc(N2CCC(=O)NC2=O)c2ccc(C3CCN(Cc4cccc(S(=O)(=O)N5CCC(Nc6ncc7c(n6)N([C@@H]6CCC[C@@H](O)C6)C(=O)C76CCC6)CC5)c4)CC3)cc21 [Compound 174, 1-[6-(1-{[3-(4-{7′-[(1R,3R)-3-Hydroxycyclohexyl]-6′-oxospiro[cyclobutane-1,5′-pyrrolo[2,3-d]pyrimidin]-2′-ylamino}piperidin-1-ylsulfonyl)phenyl]methyl}piperidin-4-yl)-1-methylindazol-3-yl]-1,3-diazinane-2,4-dione] | 47% | 82% | 3.58 nM
6 | CC1CCCC1N1C(=O)C2(CC2)c2cnc(NC3CCN(S(=O)(=O)N4CCN(C(=O)CCCCc5ccc6c(c5)n(C)c(=O)n6C5CCC(=O)NC5=O)CC4)CC3)nc21 (centres unmarked) [Compound 12] | 16.9% | 34.6% | 
7 | C[C@H](c1cccc(S(=O)(=O)N2CC[C@H](Nc3ncc4c(n3)N([C@@H]3CCC[C@@H](O)C3)C(=O)C43CC3)[C@H](F)C2)c1)N1CCN(c2ccc3c(N4CCC(=O)NC4=O)nn(C)c3c2)C[C@@H]1C [Compound 193] | 48% | 85% | 10.3 nM
8 | CC1CCCC1N1C(=O)C2(CC2)c2cnc(NC3CCN(S(=O)(=O)N4CCC(CN5CCC(c6cccc7c6n(C)c(=O)n7C6CCC(=O)NC6=O)CC5)CC4)CC3)nc21 (centres unmarked) [Compound 14, 3-(3-Methyl-4-{1-[(1-{4-[7′-(2-methylcyclopentyl)-6′-oxospiro[cyclopropane-1,5′-pyrrolo[2,3-d]pyrimidin]-2′-ylamino]piperidin-1-ylsulfonyl}piperidin-4-yl)methyl]piperidin-4-yl}-2-oxo-1,3-benzodiazol-1-yl)piperidine-2,6-dione] | 37.7% | 57.4% | 4.56 nM
9 | CC1CCCC1N1C(=O)C2(CC2)c2cnc(NC3CCN(S(=O)(=O)N4CCN(C(=O)CCCc5ccc6c(c5)n(C)c(=O)n6C5CCC(=O)NC5=O)CC4)CC3)nc21 (centres unmarked) [Compound 7] | 21.2% | 37.9% | 
10 | CC1CCCC1N1C(=O)C2(CC2)c2cnc(NC3CCN(S(=O)(=O)N4CC5CN(C(=O)CCCCCCCc6cccc7c6n(C)c(=O)n7C6CCC(=O)NC6=O)CC54)CC3)nc21 (centres unmarked) [Compound 5] | 21.9% | 24.9% | 
11 | CC(C)C1CC(c2ccc3c(N4CCC(=O)NC4=O)nn(C)c3c2)CCN1C(C)c1cccc(S(=O)(=O)N2CC[C@H](Nc3ncc4c(n3)N([C@@H]3CCC[C@@H](O)C3)C(=O)C43CC3)[C@H](F)C2)c1 (some centres unmarked) [Compound 190] | 27% | 70% | 13.6 nM
12 | CC1CCCC1N1C(=O)C2(CC2)c2cnc(NC3CCN(S(=O)(=O)C4CCN(C(=O)CCCCCCCc5cccc6c5n(C)c(=O)n6C5CCC(=O)NC5=O)C4)CC3)nc21 (centres unmarked) [Compound 6] | 30% | 66.2% | 14.6 nM

Second part, the compound after the results:

Row | CCNE1 HIBIT Protein Quantification Maximum (CCNE1) | CDK2 HIBIT Protein Quantification Maximum (CDK2) | DC50 (CDK2) | SMILES
13 |  | 48.4% |  | CC1CCCC1N1C(=O)C2(CC2)c2cnc(NC3CCN(S(=O)(=O)N4CC5(CCN(C(=O)CCCCc6cccc7c6n(C)c(=O)n7C6CCC(=O)NC6=O)CC5)C4)CC3)nc21 (centres unmarked) [Compound 9]
14 | 24.7% | 59.2% | 8.8 nM | CC1CCCC1N1C(=O)C2(CC2)c2cnc(NC3CCN(S(=O)(=O)N4CCN(C(=O)CCCCc5cccc6c5n(C)c(=O)n6C5CCC(=O)NC5=O)CC4)CC3)nc21 (centres unmarked) [Compound 8]
15 | 23.6% | 49.5% |  | CC1CCCC1N1C(=O)C2(CC2)c2cnc(NC3CCN(S(=O)(=O)C4CCN(C(=O)CCCCc5cccc6c5n(C)c(=O)n6C5CCC(=O)NC5=O)C4)CC3)nc21 (centres unmarked) [Compound 11]
16 |  | 38.9% |  | CC1CCCC1N1C(=O)C2(CC2)c2cnc(NC3CCN(S(=O)(=O)N4CCC5(CCN(C(=O)CCCCc6cccc7c6n(C)c(=O)n7C6CCC(=O)NC6=O)C5)C4)CC3)nc21 (centres unmarked) [Compound 10]
17 | 19.4% | 34.6% |  | CC1CCCC1N1C(=O)C2(CC2)c2cnc(NC3CCN(S(=O)(=O)N4CC5(CCCN(C(=O)CCCCCCCc6cccc7c6n(C)c(=O)n7C6CCC(=O)NC6=O)C5)C4)CC3)nc21 (centres unmarked) [Compound 3]
18 | 21.2% | 56.5% | 6.7 nM | CC1CCCC1N1C(=O)C2(CC2)c2cnc(NC3CCN(S(=O)(=O)N4CC5(CCN(C(=O)CCCCCCCc6cccc7c6n(C)c(=O)n7C6CCC(=O)NC6=O)CC5)C4)CC3)nc21 (centres unmarked) [Compound 4]
19 | 41.1% | 45.7% |  | CC1CCCC1N1C(=O)C2(CC2)c2cnc(NC3CCN(S(=O)(=O)N4CCC5(CCCN5C(=O)CCCCCCCc5cccc6c5n(C)c(=O)n6C5CCC(=O)NC5=O)C4)CC3)nc21 (centres unmarked) [Compound 2, 3-{3-Methyl-4-[8-(7-{4-[7′-(2-methylcyclopentyl)-6′-oxospiro[cyclopropane-1,5′-pyrrolo[2,3-d]pyrimidin]-2′-ylamino]piperidin-1-ylsulfonyl}-1,7-diazaspiro[4.4]nonan-1-yl)-8-oxooctyl]-2-oxo-1,3-benzodiazol-1-yl}piperidine-2,6-dione]
